The values that follow come from patent US8476246B2, “Combination of a chemotherapeutic agent and an inhibitor of the TGF-beta system” (Antisense Pharma GmbH, priority 2009, dated 2013).

The term IC50 denotes the concentration that inhibits the measured activity by half.

Entries after “also recorded” stand apart in the source; their conditions may differ. Where two headings read alike, the source gives them in different places.

Series [1] relates to TGF-beta 2. Nature of the series: TGF-beta 2 secretion of Hup-T3 cells (TGF-beta 2-ELISA of cell supernatants). It counts as cell-based, human. As for the experimental part: After 7 days of total treatment, cell supernatants were removed and the TGF-beta 2 concentration was analyzed (see Example 4, and FIG. 4).
The effect of gemcitabine on TGF-beta 2 expression and secretion, respectively, was investigated on Hup-T3 cells. Gemcitabine was administered to the Hup-T3 cells in following concentrations: 5 μM, 0.5 μM, 50 nM, 5 nM, 0.5 nM, 0.05 nM or 0 nM, and the cells were incubated for 5 h according to Example 1. The treatment solution was optionally replaced after 3 days.
After 7 days of treatment, cell supernatants were removed for the analysis of TGF-beta 2 concentration. The TGF-beta 2 secretion (Δ) was quantified by a standard TGF-beta 2-ELISA Kit (R&D Systems, Minneapolis, USA) according to the manufacturer's instructions.
In a further experiment the effect of the TGF-beta 2 antisense oligonucleotide on the expression and secretion, respectively, of TGF-beta 2 was investigated on Hup-T3 cells. The TGF-beta 2 antisense oligonucleotide, for example SEQ ID No. 30, was administered to the Hup-T3 cells as described in Example 1 (0 μM, 1 μM, 2.5 μM, 5 μM, 10 μM, 20 μM, 40 μM, 60 μM, or 80 μM TGF-beta 2 antisense oligonucleotide). The cells were incubated according to Example 1 and after 7 days of treatment, the cell supernatants were removed for the analysis of TGF-beta 2 concentration using the TGF-beta 2-ELISA Kit of R&D Systems.
Hup-T3 cells were incubated with different concentrations of gemcitabine (2 μM, 800 nM, 320 nM, 128 nM, 51.2 nM, 20.5 nM, 8.2 nM, and 0 nM) and TGF-beta 2 antisense oligonucleotide according to Example 1 (0 μM (▪), 5 μM (Δ), or 10 μM (•) TGF-beta 2 antisense oligonucleotide) and the cell supernatants were removed after 7 days of treatment for the analysis of TGF-beta 2 concentration using the TGF-beta 2-ELISA Kit of R&D Systems.
(In an ELISA, binding on a coated surface is turned into a signal by an enzyme label.)

The subject of series [2] is Hup-T3 cells. Put plainly: Proliferation/viability of Hup-T3 cells (EZ4U method). It counts as cell-based, human. As to conditions: gemcitabine 0.05 nM to 5 μM alone, 7 days, FIG. 2. On the procedure: In a 96-well tissue culture plate 4000 cells/well of a human pancreatic tumor cell line Hup-T3 (German Collection of Microorganisms and Cell Cultures GmbH, Braunschweig, Germany) were seeded. The Hup-T3 cell line is not resistant to gemcitabine. One day after seeding, cells were co-treated with […] different gemcitabine concentrations, i.e., 5 μM, 2 μM, 800 nM, 320 nM, 128 nM, 51.2 nM, 20.5 nM, 8.2 nM, 3.3 nM and 0 nM gemcitabine, respectively, in combination with 0 μM (▪), 5 μM (Δ) or 10 μM (∇) TGF-beta 2 antisense oligonucleotide, for example SEQ ID No. 30, for 5 h. […]
The proliferation/viability of the Hup-T3 cells was analyzed using the EZ4U method according to the manufacturer's instructions (Biozol Diagnostca Vertrieb GmbH), and the OD was measured after an incubation time of 75 min with EZ4U solution using the plate reader “Fluostar-Optima” (BMG LABTECH GmbH). […]
The proliferation/viability of the Hup-T3 cells (▪) was analyzed using the EZ4U method according to the manufacturer's instructions (Biozol Diagnostca Vertrieb GmbH), and the OD was measured after an incubation time of 75 min with EZ4U solution using the plate reader “Fluostar-Optima” (BMG LABTECH GmbH).

Series [3] deals with gemcitabine-resistant human bladder cancer cells. As to conditions: cited from earlier work.
The subject of series [4] is A-172 cells. Nature of the series: Cytotoxicity on A-172 cells (LDH release, CytoToxicity Detection Kit Plus). It counts as cell-based. Conditions: combination of temozolomide (200 or 800 μM) and 10 μM antisense oligonucleotide, 5 d. As for the experimental part:
A-172 cells (about 7000 cells/well) were seeded into 48-well plates, and 6 h after seeding 0 μM, 200 μM, or 800 μM temozolomide either alone (grey column) or in combination with 10 μM of a TGF-beta 2 antisense oligonuclotide (black column), for example SEQ ID No. 30, was added to the cells. After 2 d of incubation, the treatment solutions were replaced and cells were incubated for additional 3 d (total treatment time: 5 d). […] The cells of the supernatant were lysed by addition of lysis solution for example from the CytoToxicity Detection Kit Plus (Roche Diagnostics GmbH) and the LDH levels were determined for example according to the manual of the kit.
(Release of lactate dehydrogenase indicates damage to the cell membrane.)

The test system of series [5] is MEL-Juso cells. Nature of the series: Proliferation/viability of MEL-Juso cells (Cyquant method). It counts as cell-based, human. Conditions: 10 μM TGF-beta 2 antisense oligonucleotide in comparison to 0 μM, FIG. 5. On the procedure: In a 48-well tissue culture plate 10 000 cells/well of a human melanoma cell line MEL-Juso (CLS—Cell Lines Service, Eppelheim, Germany) were seeded. The MEL-Juso cell line is not resistant to temozolomide. Six hours after seeding, cells were co-treated with eight different temozolomid concentrations, i.e., 200 μM, 100 μM, 50 μM, 25 μM, 12.5 μM, 6.25 μM, 3.125 μM, and 0 μM temozolomide, respectively, in combination with 0 μM (▪), 5 μM (Δ) or 10 μM (∇) TGF-beta 2 antisense oligonucleotide, for example SEQ ID No. 30, for 2 days. Substances (temozolomide and TGF-beta 2 antisense oligonucleotide) were prepared in aqueous solution, stored at 4° C. and were used for 4 weeks. Thereafter the first treatment solution comprising temozolomidee and the TGF-beta 2 antisense oligonucleotide was removed and replaced by a second treatment solution containing the TGF-beta 2 antisense oligonucleotide and temozolomide in the above mentioned concentrations for further 2 days. […]
The proliferation/viability of the MEL-Juso cells was analyzed using the Cyquant method according to the manufacturer's instructions (Invitrogen), and the OD was measured after an incubation time of 60min with Cyquant solutions (detection reagent, direct nucleic acid stain, and direct nucleic acid background suppressor) using the plate reader “Fluostar-Optima” (BMG LABTECH GmbH).

Take `Nc1ccn([C@@H]2O[C@H](CO)[C@@H](O)C2(F)F)c(=O)n1` [gemcitabine]: the “effect of gemcitabine on TGF-beta 2 secretion” value in series [1] (gemcitabine 0.05 nM to 5 μM, 7 days, FIG. 2) was “does not specifically influence the TGF-beta 2 secretion; also recorded: no specific influence”. Moreover, the “effect of gemcitabine on the suppression of TGF-beta 2 secretion by TGF-beta 2 antisense oligonucleotide” value in series [1] (gemcitabine 8.2 nM to 2 μM with 5 or 10 μM antisense oligonucleotide, FIG. 4) is “does not impair the suppression of TGF-beta 2 secretion; also recorded: does not affect the inhibitory effect of the antisense oligonucleotide on its target”. In addition, the “effect of gemcitabine on proliferation and viability” value in series [2] is given as “has a cytotoxic effect; also recorded: decreases at higher gemcitabine concentrations”. In addition, the IC50 in series [3] (gemcitabine-resistant cells chemosensitized with sCLU-2 antisense oligonucleotide) was 10 nM; in series [3] (gemcitabine-resistant cells, before sCLU-2 antisense oligonucleotide), 100 nM.

“CGGCATGTCTATTTTGTA (listed as DNA, chemistry not given here) [TGF-beta 2 antisense oligonucleotide]”: the “amount of released LDH” value in series [4] is recorded as “significantly increased”. Further, the “effect on TGF-beta 2 secretion in the presence of gemcitabine” value in series [1] (0, 5 or 10 μM antisense oligonucleotide, gemcitabine 8.2 nM to 2 μM, FIG. 4) is given as “inhibited TGF-beta 2 secretion in a dose dependent manner”. The “effect on TGF-beta 2 secretion” value in series [1] (antisense oligonucleotide 1 to 80 μM, no gemcitabine, 7 days, FIG. 3) was “inhibited the TGF-beta 2 expression and secretion, respectively, in a dose dependent manner; also recorded: dose dependent inhibitory effect”. Also, the “reduction of the IC50 of temozolomide (cytotoxicity)” value in series [5] is reported as “about 2 ×”.
